Source: ChEMBL document CHEMBL1201862, “PubChem BioAssay data set” (2004)
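96-well plates; 48 h exposure; 5 concentrations. Endpoints by linear interpolation between flanking doses. Not reached: highest tested concentration assigned. GI50 marks 50% less growth.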 Active and inactive are the calls of the source. Cut-off read from the data, not from the text of the source: active = GI50 up to about 1.1 µM and inactive = higher. Where a SMILES comes first, the peptide text is derived from it. [ ]: non-standard residue; d: D form. The star is where a group is joined. Phe(4-NO2) = N[CH](Cc1ccc([N+](=O)[O-])cc1)C(=O)O; Boc = CC(C)(C)OC(=O)*

Legend:
Assay in all cases: NCI anticancer screen, dose series, 48 h
786-0 = tested on: 786-0
A498 = tested on: A498
BT-549 = tested on: BT-549
CCRF-CEM = tested on: CCRF-CEM
DU-145 = tested on: DU-145
HCT-116 = tested on: HCT-116
K562 = tested on: K562
Malme-3M = tested on: Malme-3M
NCI-H226 = tested on: NCI-H226
NCI-H460 = tested on: NCI-H460
NCI/ADR-RES = tested on: NCI/ADR-RES
PC-3 = tested on: PC-3
SK-MEL-2 = tested on: SK-MEL-2
TK-10 = tested on: TK-10
U-251 = tested on: U-251
UO-31 = tested on: UO-31
OVCAR-5 = tested on: OVCAR-5
SK-OV-3 = tested on: SK-OV-3
T47D = tested on: T47D
HOP-92 = tested on: HOP-92

SMILES | GI50 (786-0) | GI50 (A498) | GI50 (BT-549) | GI50 (CCRF-CEM) | GI50 (DU-145) | GI50 (HCT-116) | GI50 (K562) | GI50 (Malme-3M) | GI50 (NCI-H226) | GI50 (NCI-H460) | GI50 (NCI/ADR-RES) | GI50 (PC-3) | GI50 (SK-MEL-2) | GI50 (TK-10) | GI50 (U-251) | GI50 (UO-31) | GI50 (OVCAR-5) | GI50 (SK-OV-3) | GI50 (T47D) | GI50 (HOP-92)
COc1cc(C2C3=C(COC3=O)Oc3cc4c(cc32)OCO4)cc(OC)c1OC(C)=O (stereo not given) | 0.0186 µM (active) | 0.0116 µM (active) | 0.0255 µM (active) | 0.0258 µM (active) | 0.0381 µM (active) | 0.0207 µM (active) | 0.0122 µM (active) | < 0.0215 µM (active) | < 0.0376 µM (active) | 0.0212 µM (active) | < 0.01 µM (active) | < 0.01 µM (active) | 37 µM (inactive) | 0.966 µM (active) | 0.0388 µM (active) | < 0.0124 µM (active) | – | – | – | –
CSc1cc(Cl)c(C)cc1S(=O)(=O)NC(=O)NNc1ccccn1 | > 100 µM (inactive) | > 100 µM (inactive) | – | > 100 µM (inactive) | > 100 µM (inactive) | > 100 µM (inactive) | > 100 µM (inactive) | > 100 µM (inactive) | > 100 µM (inactive) | > 100 µM (inactive) | > 100 µM (inactive) | > 100 µM (inactive) | > 100 µM (inactive) | – | > 100 µM (inactive) | – | > 100 µM (inactive) | > 100 µM (inactive) | > 100 µM (inactive) | –
C#CCC(O)c1ccc(OC)c(OCc2ccccc2)c1 (stereo not given) | > 100 µM (inactive) | > 100 µM (inactive) | – | 26.7 µM (inactive) | > 100 µM (inactive) | > 100 µM (inactive) | 61.9 µM (inactive) | > 100 µM (inactive) | 32.8 µM (inactive) | > 100 µM (inactive) | 82.2 µM (inactive) | > 100 µM (inactive) | > 100 µM (inactive) | > 100 µM (inactive) | > 100 µM (inactive) | > 100 µM (inactive) | > 100 µM (inactive) | > 100 µM (inactive) | > 100 µM (inactive) | > 100 µM (inactive)
Oc1ccc(-c2nc3cc(C(F)(F)F)ccc3n2CC2CCCN3CCCCC23)cc1 (stereo not given) | 17 µM (inactive) | 14.9 µM (inactive) | – | 14.7 µM (inactive) | 17.1 µM (inactive) | 15.7 µM (inactive) | 15.5 µM (inactive) | – | 16.3 µM (inactive) | 15.1 µM (inactive) | 16.5 µM (inactive) | 14.1 µM (inactive) | 14.7 µM (inactive) | 16.9 µM (inactive) | 14.8 µM (inactive) | 11.7 µM (inactive) | 13.8 µM (inactive) | 12.6 µM (inactive) | 18.2 µM (inactive) | 14.9 µM (inactive)
c1ccc2sc(C3(N4CCCCC4)CCCC3)cc2c1 | 9.93 µM (inactive) | 12.7 µM (inactive) | 12.6 µM (inactive) | 3.5 µM (inactive) | 11.3 µM (inactive) | 5.94 µM (inactive) | 6.61 µM (inactive) | 13.8 µM (inactive) | 1.79 µM (inactive) | 5.93 µM (inactive) | 6.24 µM (inactive) | – | – | 13.6 µM (inactive) | – | 16.9 µM (inactive) | 11 µM (inactive) | 15.9 µM (inactive) | – | 11.2 µM (inactive)
CCOC(=O)CCC(NC(=O)C(Cc1ccc([N+](=O)[O-])cc1)NC(=O)OC(C)(C)C)C(=O)NC(CCC(=O)OCC)C(=O)OCC (stereo not given) (Boc-[Phe(4-NO2)]-Glu(OEt)-Glu(OEt)-OEt; configuration not given here) | 16.8 µM (inactive) | 19.5 µM (inactive) | 22.2 µM (inactive) | – | – | 18.3 µM (inactive) | > 10 µM (inactive) | 18.2 µM (inactive) | 16.8 µM (inactive) | 23.4 µM (inactive) | – | 19.7 µM (inactive) | 13.2 µM (inactive) | 15.5 µM (inactive) | 19.8 µM (inactive) | > 100 µM (inactive) | 20.7 µM (inactive) | – | – | 15.8 µM (inactive)
